Data from patent US8211935B2, “Heterocyclic derivatives for modulation of calcium channels” (Vertex Pharmaceuticals Incorporated, priority 2004, dated 2012).
Where two headings read alike, the source gives them in different places.

Target: T1, CaV2.2 (Homo sapiens, UniProt Q00975)
T1 construct: expressed in transfected cells; host or cells: HEK293
Test: VIPR optical membrane potential assay with electrical stimulation
Type: cell-based
Protocol: Antagonist properties of test compounds were assessed as follows. Cells expressing the CaV of interest were placed into microtiter plates. After an incubation period, the cells were stained with fluorescent dyes sensitive to the transmembrane potential. The test compounds were added to the microtiter plate. The cells were stimulated with electrical means to evoke a CaV dependent membrane potential change from unblocked channels, which was detected and measured with trans-membrane potential-sensitive dyes. Antagonists were detected as a decreased membrane potential response to the stimulus.
VIPR® Optical Membrane Potential Assay Method with Electrical Stimulation
The following is an example of how CaV2.2 inhibition activity is measured using the optical membrane potential method. Other subtypes are performed in an analogous mode in a cell line expressing the CaV of interest.
HEK293 cells stably expressing CaV2.2 are plated into 96-well microtiter plates. After an appropriate incubation period, the cells are stained with the voltage sensitive dyes CC2-DMPE/DiSBAC2(3) as follows.
2×CC2-DMPE=20 μM CC2-DMPE: 10 mM CC2-DMPE is vortexed with an equivalent volume of 10% Pluronic, followed by vortexing in required amount of HBSS containing 10 mM HEPES. Each cell plate will require 5 mL of 2×CC2-DMPE. 50 μL of 2×CC2-DMPE is added to wells containing washed cells, resulting in a 10 μM final staining concentration. The cells are stained for 30 minutes in the dark at RT.
Vortex in required amount of Bath X with beta-cyclodextrin. Each 96 well cell plate will require 5 ml of 2×CC2DMPE. Wash plate with ELx405 with Bath X, leaving a residual volume of 50 μL/well. Add 50 μL of 2×CC2DMPE & DISBAC6(3) to each well. Stain for 30 minutes in the dark at RT.
Allow solution to sit for 10 minutes. Slowly mix in 370 mM BaCl2. This solution can be used to solvate compound plates. Note that compound plates are made at 1.5× drug concentration and not the usual 2×. Wash CC2 stained plate, again, leaving residual volume of 50 pt. Add 100 uL/well of the AY17 solution. Stain for 15 minutes in the dark at RT. Run plate on the optical reader.
The instrument comprises a microtiter plate handler, an optical system for exciting the coumarin dye while simultaneously recording the coumarin and oxonol emissions, a waveform generator, a current- or voltage-controlled amplifier, and a device for inserting electrodes in well. Under integrated computer control, this instrument passes user-programmed electrical stimulus protocols to cells within the wells of the microtiter plate.
Insert or use electrodes into each well to be assayed.
Use the current-controlled amplifier to deliver stimulation wave pulses for 3-5 s. Two seconds of pre-stimulus recording are performed to obtain the un-stimulated intensities. Five seconds of post-stimulation recording are performed to examine the relaxation to the resting state.
Data are analyzed and reported as normalized ratios of background-subtracted emission intensities measured in the 460 nm and 580 nm channels. Background intensities are then subtracted from each assay channel. Background intensities are obtained by measuring the emission intensities during the same time periods from identically treated assay wells in which there are no cells. The response as a function of time is then reported as the ratios obtained using the following formula: […]
The data is further reduced by calculating the initial (Ri) and final (Rf) ratios. These are the average ratio values during part or all of the pre-stimulation period, and during sample points during the stimulation period. The response to the stimulus R=Rf/Ri is then calculated.
Control responses are obtained by performing assays in the presence of a compound with the desired properties (positive control), such as mibefradil, and in the absence of pharmacological agents (negative control). Responses to the negative (N) and positive (P) controls are calculated as above.

[1] = Table 3, biological assay data, read-out: IC50

T1 sequence (Q00975 whole entry): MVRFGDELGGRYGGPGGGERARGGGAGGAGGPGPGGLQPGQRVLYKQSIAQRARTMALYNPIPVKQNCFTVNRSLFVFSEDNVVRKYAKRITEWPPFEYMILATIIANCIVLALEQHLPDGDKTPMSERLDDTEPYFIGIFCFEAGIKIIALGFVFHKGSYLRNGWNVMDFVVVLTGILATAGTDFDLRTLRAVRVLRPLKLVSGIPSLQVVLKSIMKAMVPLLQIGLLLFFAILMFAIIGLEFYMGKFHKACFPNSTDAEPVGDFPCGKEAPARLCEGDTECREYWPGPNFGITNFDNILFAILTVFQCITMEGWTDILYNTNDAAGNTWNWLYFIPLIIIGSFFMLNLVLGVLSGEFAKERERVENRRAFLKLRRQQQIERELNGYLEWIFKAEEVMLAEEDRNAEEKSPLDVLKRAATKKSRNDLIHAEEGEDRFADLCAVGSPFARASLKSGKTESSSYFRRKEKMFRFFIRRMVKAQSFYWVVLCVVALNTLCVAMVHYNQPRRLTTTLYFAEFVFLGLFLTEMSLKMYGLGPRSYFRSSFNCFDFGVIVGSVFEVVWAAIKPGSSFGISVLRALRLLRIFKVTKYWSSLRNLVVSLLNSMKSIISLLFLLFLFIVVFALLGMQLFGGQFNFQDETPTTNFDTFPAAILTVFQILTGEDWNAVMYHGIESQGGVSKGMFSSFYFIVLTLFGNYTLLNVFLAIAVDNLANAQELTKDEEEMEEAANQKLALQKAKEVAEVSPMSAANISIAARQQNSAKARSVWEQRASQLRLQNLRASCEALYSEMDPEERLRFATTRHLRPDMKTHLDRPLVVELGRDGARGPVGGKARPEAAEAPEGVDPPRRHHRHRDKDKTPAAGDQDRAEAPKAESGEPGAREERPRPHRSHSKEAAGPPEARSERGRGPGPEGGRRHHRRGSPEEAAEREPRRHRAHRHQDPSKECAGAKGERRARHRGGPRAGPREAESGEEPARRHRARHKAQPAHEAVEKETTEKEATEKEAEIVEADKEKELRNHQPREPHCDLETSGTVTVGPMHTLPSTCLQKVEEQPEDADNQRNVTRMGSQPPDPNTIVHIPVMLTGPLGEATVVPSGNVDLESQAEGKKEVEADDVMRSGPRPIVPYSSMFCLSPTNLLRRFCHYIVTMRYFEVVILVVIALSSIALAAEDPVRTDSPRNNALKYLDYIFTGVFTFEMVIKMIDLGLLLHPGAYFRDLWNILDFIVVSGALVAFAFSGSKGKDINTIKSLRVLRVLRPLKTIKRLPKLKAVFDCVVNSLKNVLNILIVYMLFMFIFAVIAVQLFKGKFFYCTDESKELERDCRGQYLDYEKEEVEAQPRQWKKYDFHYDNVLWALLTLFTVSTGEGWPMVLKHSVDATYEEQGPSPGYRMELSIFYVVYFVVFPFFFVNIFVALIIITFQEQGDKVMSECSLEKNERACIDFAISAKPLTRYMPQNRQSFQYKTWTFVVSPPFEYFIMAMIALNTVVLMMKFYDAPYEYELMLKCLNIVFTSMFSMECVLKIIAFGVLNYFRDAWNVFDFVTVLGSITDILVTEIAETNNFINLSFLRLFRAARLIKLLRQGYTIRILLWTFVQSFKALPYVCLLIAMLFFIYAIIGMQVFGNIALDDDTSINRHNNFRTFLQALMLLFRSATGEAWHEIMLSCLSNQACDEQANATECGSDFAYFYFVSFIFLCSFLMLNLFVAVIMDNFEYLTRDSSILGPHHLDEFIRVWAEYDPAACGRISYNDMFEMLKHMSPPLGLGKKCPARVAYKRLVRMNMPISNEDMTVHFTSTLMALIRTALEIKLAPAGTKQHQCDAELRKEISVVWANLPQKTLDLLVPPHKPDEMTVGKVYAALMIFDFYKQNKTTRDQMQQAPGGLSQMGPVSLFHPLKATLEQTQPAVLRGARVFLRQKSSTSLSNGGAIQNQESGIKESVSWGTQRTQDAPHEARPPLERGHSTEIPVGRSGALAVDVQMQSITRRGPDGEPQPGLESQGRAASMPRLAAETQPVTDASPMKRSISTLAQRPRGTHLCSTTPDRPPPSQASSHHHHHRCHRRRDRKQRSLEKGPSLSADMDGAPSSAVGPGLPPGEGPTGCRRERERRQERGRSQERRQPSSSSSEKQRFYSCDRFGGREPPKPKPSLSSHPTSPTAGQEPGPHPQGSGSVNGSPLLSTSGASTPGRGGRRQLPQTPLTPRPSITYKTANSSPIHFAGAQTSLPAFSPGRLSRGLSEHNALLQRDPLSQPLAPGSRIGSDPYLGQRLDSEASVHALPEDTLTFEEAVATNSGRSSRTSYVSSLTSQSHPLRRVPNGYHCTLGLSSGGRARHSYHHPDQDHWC
T1 sequence (P54284 whole entry partner): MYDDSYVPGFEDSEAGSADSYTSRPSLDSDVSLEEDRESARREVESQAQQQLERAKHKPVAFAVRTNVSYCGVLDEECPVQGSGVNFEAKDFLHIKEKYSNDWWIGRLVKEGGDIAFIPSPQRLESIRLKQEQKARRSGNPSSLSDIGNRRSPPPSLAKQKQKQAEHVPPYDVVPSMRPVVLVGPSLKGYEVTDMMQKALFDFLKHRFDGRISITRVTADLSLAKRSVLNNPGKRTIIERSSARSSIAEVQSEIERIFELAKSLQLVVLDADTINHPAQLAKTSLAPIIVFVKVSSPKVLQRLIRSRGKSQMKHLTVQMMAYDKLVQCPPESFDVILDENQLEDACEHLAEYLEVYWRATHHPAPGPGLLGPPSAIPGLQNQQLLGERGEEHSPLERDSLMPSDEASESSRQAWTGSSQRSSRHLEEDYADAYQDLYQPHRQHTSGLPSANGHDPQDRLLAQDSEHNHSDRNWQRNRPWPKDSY
T1 sequence (P54289 25-946 partner limits assumed): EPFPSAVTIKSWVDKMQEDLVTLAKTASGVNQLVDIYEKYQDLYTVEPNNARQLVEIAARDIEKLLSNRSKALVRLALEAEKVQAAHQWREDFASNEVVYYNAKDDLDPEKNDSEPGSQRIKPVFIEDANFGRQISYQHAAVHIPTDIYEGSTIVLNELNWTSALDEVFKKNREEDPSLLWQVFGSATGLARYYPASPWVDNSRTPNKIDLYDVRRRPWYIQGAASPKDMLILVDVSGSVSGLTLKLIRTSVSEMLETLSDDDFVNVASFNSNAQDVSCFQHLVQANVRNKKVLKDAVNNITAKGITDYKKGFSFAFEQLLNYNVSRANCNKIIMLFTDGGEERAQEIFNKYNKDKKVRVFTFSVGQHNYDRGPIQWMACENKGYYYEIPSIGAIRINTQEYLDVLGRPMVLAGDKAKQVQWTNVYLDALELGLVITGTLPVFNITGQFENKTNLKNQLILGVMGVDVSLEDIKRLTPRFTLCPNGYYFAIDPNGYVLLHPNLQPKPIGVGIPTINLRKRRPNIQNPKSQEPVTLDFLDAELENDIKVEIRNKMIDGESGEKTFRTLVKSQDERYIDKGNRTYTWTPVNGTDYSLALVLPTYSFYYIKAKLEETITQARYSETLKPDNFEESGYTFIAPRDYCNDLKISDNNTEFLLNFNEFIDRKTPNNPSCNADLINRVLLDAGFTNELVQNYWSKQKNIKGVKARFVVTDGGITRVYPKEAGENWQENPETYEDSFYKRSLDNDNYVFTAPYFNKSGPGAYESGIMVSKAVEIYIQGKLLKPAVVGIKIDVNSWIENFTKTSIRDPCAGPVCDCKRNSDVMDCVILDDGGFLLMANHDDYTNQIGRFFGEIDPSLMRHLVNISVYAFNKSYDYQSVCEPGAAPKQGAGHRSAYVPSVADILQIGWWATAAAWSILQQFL
T1 sequence (P54289 947-1103 partner limits assumed): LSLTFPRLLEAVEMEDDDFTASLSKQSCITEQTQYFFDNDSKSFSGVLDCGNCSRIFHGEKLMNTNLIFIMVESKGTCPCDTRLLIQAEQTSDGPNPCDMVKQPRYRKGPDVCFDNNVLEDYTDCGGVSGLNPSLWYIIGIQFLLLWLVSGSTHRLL

| SMILES | IC50 [1] | IC50 |
| --- | --- | --- |
| Cc1c(C(=O)N(C)Cc2ccccc2)oc2ccc(S(=O)(=O)N3CCCCC3)cc12 [compound 93] | < 5 µM | – |
| Cc1c(C(=O)NCCCc2ccccc2)oc2ccc(S(=O)(=O)N3CCCCCC3)cc12 [compound 94] | 5 to 20 µM | – |
| CCCCN(C)C(=O)c1oc2ccc(S(=O)(=O)N(CC)CC)cc2c1C [compound 95] | 5 to 20 µM | – |
| O=C(c1cc2cc(S(=O)(=O)N3CCCCCC3)ccc2o1)N1CCCCC1 [compound 96] | 5 to 20 µM | – |
| CC1CCN(S(=O)(=O)c2ccc3oc(C(=O)NCCc4ccccc4)cc3c2)CC1 [compound 97] | 5 to 20 µM | – |
| CC1CCN(S(=O)(=O)c2ccc3[nH]c(C(=O)NCCCc4ccccc4)cc3c2)CC1 [compound 98] | < 5 µM | – |
| CC1CC(C)CN(S(=O)(=O)c2ccc3oc(C(=O)N4CCCCC4)cc3c2)C1 (centres unmarked) [compound 100] | < 5 µM | – |
| CC1CCN(S(=O)(=O)c2ccc3[nH]c(C(=O)N4CCCC(C)C4)cc3c2)CC1 (centres unmarked) [compound 101] | < 5 µM | – |
| Cc1c(C(=O)N2CCCC(C)C2)oc2ccc(S(=O)(=O)N3CCCCCC3)cc12 (centres unmarked) [compound 102] | < 5 µM | – |
| Cc1c(C(=O)N2CCC(C)CC2)[nH]c2ccc(S(=O)(=O)N3CC(C)CC(C)C3)cc12 (centres unmarked) [compound 103] | < 5 µM | – |
| CC1CCN(S(=O)(=O)c2ccc3[nH]c(C(=O)N4CCCC4)cc3c2)CC1 [compound 104] | 5 to 20 µM | – |
| O=C(NC1CC1)c1cc2cc(N(CC3CC3)S(=O)(=O)c3ccccc3)ccc2[nH]1 [compound 105] | 5 to 20 µM | – |
| CC1CCN(S(=O)(=O)c2ccc3oc(C(=O)N4CCC5(CC4)OCCO5)cc3c2)CC1 [compound 106] | – | < 20 µM |
| CC1CC(C)CN(S(=O)(=O)c2ccc3c(c2)cc(C(=O)N2CCCCC2)n3S(=O)(=O)c2ccc(F)cc2)C1 (centres unmarked) [compound 107] | < 5 µM | – |
| CC1CCN(S(=O)(=O)c2ccc3[nH]c(CNC4CC4)cc3c2)CC1 [compound 108] | < 5 µM | – |
| Cc1c(C(=O)NC2CCCc3ccccc32)oc2ccc(S(=O)(=O)N3CCOCC3)cc12 (centres unmarked) [compound 109] | < 20 µM | – |
| Cc1c(C(=O)NC(C)C)oc2ccc(S(=O)(=O)N3CCCCCC3)cc12 [compound 110] | 5 to 20 µM | – |
| CC1CCN(S(=O)(=O)c2ccc3oc(C(=O)NCC4CCOCC4)cc3c2)CC1 [compound 111] | 5 to 20 µM | – |
| CCN(CC)S(=O)(=O)c1ccc2oc(C(=O)N3CCCCC3C)c(C)c2c1 (centres unmarked) [compound 112] | 5 to 20 µM | – |
| CCCCN(C)C(=O)c1cc2cc(S(=O)(=O)N3CCCCCC3)ccc2o1 [compound 113] | < 5 µM | – |
| Cc1c(C(=O)NCCN2CCOCC2)oc2ccc(S(=O)(=O)N3CCCCCC3)cc12 [compound 114] | 5 to 20 µM | – |

| SMILES | IC50 [1] | IC50 |
| --- | --- | --- |
| COc1ccc(NS(=O)(=O)c2ccc3oc(C(=O)NC4CC4)c(C)c3c2)cc1 [compound 115] | 5 to 20 µM | – |
| Cc1c(C(=O)NC(C)C)[nH]c2ccc(S(=O)(=O)N3CCC(C)CC3)cc12 [compound 116] | 5 to 20 µM | – |
| CCCCN(C)C(=O)c1[nH]c2ccc(S(=O)(=O)N3CCC(C)CC3)cc2c1C [compound 117] | < 5 µM | – |
| Cc1c(C(=O)NCc2ccccc2)oc2ccc(S(=O)(=O)N3CCC4(CC3)OCCO4)cc12 [compound 118] | < 20 µM | – |
| CC1CCN(S(=O)(=O)c2ccc3oc(C(=O)NC4CCCC4)cc3c2)CC1 [compound 119] | < 5 µM | – |
| Cc1c(C(=O)NCc2ccccc2)[nH]c2ccc(S(=O)(=O)N3CCC(C)CC3)cc12 [compound 120] | < 5 µM | – |
| CC1CCN(S(=O)(=O)c2ccc3[nH]c(CN4CCN(C)CC4)cc3c2)CC1 [compound 121] | 5 to 20 µM | – |
| CC1CC(C)CN(S(=O)(=O)c2ccc3oc(C(=O)NC4CCCC4)cc3c2)C1 (centres unmarked) [compound 122] | < 5 µM | – |
| Cc1c(C(=O)NC2CCCCC2C)oc2ccc(S(=O)(=O)N3CCOCC3)cc12 (centres unmarked) [compound 123] | 5 to 20 µM | – |
| Cc1c(C(=O)N2CC(C)CC(C)C2)oc2ccc(S(=O)(=O)N3CCCCC3)cc12 (centres unmarked) [compound 124] | 5 to 20 µM | – |
| CC1CC(C)CN(S(=O)(=O)c2ccc3[nH]c(C(=O)N4CCCCCC4)cc3c2)C1 (centres unmarked) [compound 126] | < 5 µM | – |
| Cc1c(C(=O)N2CC(C)CC(C)C2)[nH]c2ccc(S(=O)(=O)N3CCC(C)CC3)cc12 (centres unmarked) [compound 127] | 5 to 20 µM | – |
| Cc1c(C(=O)N2CCC(C)CC2)oc2ccc(S(=O)(=O)N3CCC(C)CC3)cc12 [compound 128] | 5 to 20 µM | – |
| Cc1c(C(=O)NCCN2CCOCC2)oc2ccc(S(=O)(=O)N3CCC(C)CC3)cc12 [compound 129] | 5 to 20 µM | – |
| CCNC(=O)c1cc2cc(S(=O)(=O)N3CCC(C)CC3)ccc2[nH]1 [compound 130] | < 5 µM | – |
| CCNC(=O)c1cc2cc(S(=O)(=O)N3CCC(C)CC3)ccc2o1 [compound 131] | < 5 µM | – |
| Cc1c(C(=O)NC2CCCCC2C)oc2ccc(S(=O)(=O)N3CCCC3)cc12 (centres unmarked) [compound 132] | < 20 µM | – |
| Cc1c(C(=O)NC2CC2)oc2ccc(S(=O)(=O)Nc3nncs3)cc12 [compound 133] | < 20 µM | – |
| Cc1c(C(=O)NCCCN2CCCC2=O)oc2ccc(S(=O)(=O)N3CC(C)CC(C)C3)cc12 (centres unmarked) [compound 134] | 5 to 20 µM | – |
| CN1CCN(C(=O)c2cc3cc(S(=O)(=O)N4CCCCCC4)ccc3n2S(=O)(=O)c2ccccc2)CC1 [compound 135] | 5 to 20 µM | – |
| Cc1c(C(=O)NCCc2ccccc2)oc2ccc(S(=O)(=O)N3CCC4(CC3)OCCO4)cc12 [compound 136] | 5 to 20 µM | – |

| SMILES | IC50 [1] | IC50 |
| --- | --- | --- |
| CC1CC(C)CN(S(=O)(=O)c2ccc3oc(C(=O)N(C(C)C)C(C)C)cc3c2)C1 (centres unmarked) [compound 137] | < 5 µM | – |
| CC1CCN(S(=O)(=O)c2ccc3oc(C(=O)N(C(C)C)C(C)C)cc3c2)CC1 [compound 138] | < 5 µM | – |
| CC1CCN(S(=O)(=O)c2ccc3cc(C(=O)NC4CC4)[nH]c3c2)CC1 [compound 139] | 5 to 20 µM | – |
| CC1CCN(S(=O)(=O)c2ccc3[nH]c(C(=O)N(C(C)C)C(C)C)cc3c2)CC1 [compound 140] | < 5 µM | – |
| CCCCN(C)C(=O)c1cc2cc(S(=O)(=O)N3CCC(C)CC3)ccc2[nH]1 [compound 141] | < 5 µM | – |
| CC1CCN(S(=O)(=O)c2ccc3[nH]c(C(=O)NC(C)C)cc3c2)CC1 [compound 142] | < 5 µM | – |
| CC1CC(C)CN(S(=O)(=O)c2ccc3[nH]c(C(=O)N4CCCC4)cc3c2)C1 (centres unmarked) [compound 143] | 5 to 20 µM | – |
| Cc1c(C(=O)N2CC(C)CC(C)C2)oc2ccc(S(=O)(=O)N3CCOCC3)cc12 (centres unmarked) [compound 144] | 5 to 20 µM | – |
| CNC(=O)c1oc2ccc(S(=O)(=O)N3CCCCCC3)cc2c1C [compound 145] | < 20 µM | – |
| Cc1c(C(=O)NC2CCCC2)[nH]c2ccc(S(=O)(=O)N3CCC(C)CC3)cc12 [compound 146] | < 5 µM | – |
| CC1CCN(C(=O)c2cc3cc(S(=O)(=O)N4CCC(C)CC4)ccc3[nH]2)CC1 [compound 147] | < 5 µM | – |
| Cc1c(C(=O)NC2CCCC2)oc2ccc(S(=O)(=O)N3CCC(C)CC3)cc12 [compound 148] | < 5 µM | – |
| Cc1c(C(=O)NCC2CCCO2)oc2ccc(S(=O)(=O)N3CCOCC3)cc12 (centres unmarked) [compound 149] | < 20 µM | – |
| CCNC(=O)c1oc2ccc(S(=O)(=O)N3CCCCCC3)cc2c1C [compound 150] | 5 to 20 µM | – |
| Cc1ccc(S(=O)(=O)Nc2ccc3[nH]c(C(=O)NC4CC4)cc3c2)cc1 [compound 151] | 5 to 20 µM | – |
| Cc1c(C(=O)N2CCN(C)CC2)oc2ccc(S(=O)(=O)N3CCCCCC3)cc12 [compound 152] | 5 to 20 µM | – |
| Cc1c(C(=O)N2CCCCC2C)oc2ccc(S(=O)(=O)N3CC(C)CC(C)C3)cc12 (centres unmarked) [compound 153] | < 5 µM | – |
| Cc1c(C(=O)NCc2ccc(F)cc2)oc2ccc(S(=O)(=O)N3CCC(C)CC3)cc12 [compound 154] | 5 to 20 µM | – |
| CNC(=O)c1oc2ccc(S(=O)(=O)N3CCCCC3)cc2c1C [compound 155] | < 20 µM | – |
| CC1CC(C)CN(S(=O)(=O)c2ccc3oc(C(=O)N4CCC5(CC4)OCCO5)cc3c2)C1 (centres unmarked) [compound 156] | – | < 5 µM |
